According to patent US12502362B2, “Inhibitors of nucleotidyltransferase superfamily enzymes as antibiotics” (priority 2017, dated 2025):
Where two headings read alike, the source gives them in different places.

Key:
Format in all cases: cell-based
Morganella morganii = experiment: Antibiotic susceptibility of Morganella morganii strain; details: Mm1 (Morganella morganii)
Excerpt: (§1) All these MDR-bacteria are at least resistant to two classes of the antibiotics among five groups and/or specific antibiotics including quinolones/fluorquinolones, carbapenems, cephalosporins, aminoglycosides and piperacillin-tazobactam.

Klebsiella pneumonia = experiment: Antibiotic susceptibility of Klebsiella pneumonia strains
Excerpt: as §1

[1] = test system: MDR Acinetobacter baumannii
Excerpt: as §1

MDR E. coli = test system: MDR E. coli
Excerpt: as §1

[2] = test system: Enterobacter cloacae complex; experiment: Antibiotic susceptibility of Enterobacter cloacae complex strain; details: Ecc1 (Enterobacter cloacae complex)
Excerpt: as §1

Citrobacter koseri = experiment: Antibiotic susceptibility of Citrobacter koseri strain; details: Ck1 (Citrobacter koseri)
Excerpt: as §1

Row | Compound | Antibiotic susceptibility (Morganella morganii) | Antibiotic susceptibility (Klebsiella pneumonia; Kp1 (Klebsiella pneumonia)) | Antibiotic susceptibility (Klebsiella pneumonia; Kp6 (Klebsiella pneumonia)) | Antibiotic susceptibility ([1]; Ab1 (Acinetobacter baumannii)) | Antibiotic susceptibility ([1]; Ab2 (Acinetobacter baumannii)) | Antibiotic susceptibility ([1]; Ab3 (Acinetobacter baumannii)) | Antibiotic susceptibility ([1]; Ab4 (Acinetobacter baumannii)) | Antibiotic susceptibility ([1]; Ab5 (Acinetobacter baumannii)) | Antibiotic susceptibility (MDR E. coli; Ec1 (E. coli)) | Antibiotic susceptibility (MDR E. coli; Ec2 (E. coli)) | Antibiotic susceptibility (MDR E. coli; Ec3 (E. coli)) | Antibiotic susceptibility (MDR E. coli; Ec4 (E. coli)) | Antibiotic susceptibility (MDR E. coli; Ec5 (E. coli)) | Antibiotic susceptibility [2] | Antibiotic susceptibility (Citrobacter koseri)
1 | CC1(C)S[C@@H]2[C@H](NC(=O)[C@H](N)c3ccccc3)C(=O)N2[C@H]1C(=O)O [AMP, Ampicillin] | R | R | R | R | R | R | R | R | R | R | R | R | R | – | –
2 | CC(C)(O/N=C(\C(=O)N[C@@H]1C(=O)N2C(C(=O)[O-])=C(C[n+]3ccccc3)CS[C@H]12)c1csc(N)n1)C(=O)O [CAZ, Ceftazidime] | R | R | R | R | R | R | R | R | R | R | R | R | R | R | R
3 | Cc1nnc(SCC2=C(C(=O)O)N3C(=O)[C@@H](NC(=O)Cn4cnnn4)[C@H]3SC2)s1 [CFZ, Cefazolin] | R | R | R | R | R | R | R | R | R | R | R | R | R | – | R
4 | CO/N=C(\C(=O)N[C@@H]1C(=O)N2C(C(=O)O)=C(CSc3nc(=O)c(=O)[nH]n3C)CS[C@H]12)c1csc(N)n1 [CRO, Ceftriaxone] | I | R | R | R | R | R | R | R | R | R | R | R | R | R | S
5 | C[C@@H](O)[C@H]1C(=O)N2C(C(=O)O)=C(S[C@@H]3CN[C@H](C(=O)Nc4cccc(C(=O)O)c4)C3)[C@H](C)[C@H]12 [ETP, Ertapenem] | S | S | S | – | – | – | – | – | S | S | S | S | S | S | S
6 | CO/N=C(\C(=O)N[C@@H]1C(=O)N2C(C(=O)[O-])=C(C[N+]3(C)CCCC3)CS[C@H]12)c1csc(N)n1 [FEP, Cefepime] | S | R | R | R | R | R | R | R | R | R | R | R | R | – | S
